From article PMC6207618, “The GbsR Family of Transcriptional Regulators: Functional Characterization of the OpuAR Repressor” (Frontiers in Microbiology, 2018)

Columns and labels:
[1] = system: opuAA-treA reporter activity; assay: opuAA-treA reporter fusion TreA enzyme activity assay; format: cell-based, Bacillus subtilis; conditions: strain STHB10 (OpuAR+), SMM with 1.2 M NaCl, 1 mM compatible solute
Description: opuAAB.infantis′-treA reporter gene fusions were constructed using primers opuAR treA Frag1/2 rev and either opuAR treA Frag1/4 for (Supplementary Table S2) to amplify a 1940-bp DNA fragment from chromosomal DNA of B. infantis NRRL B-14911, including the predicted opuA promoter region and the coding region of opuAR, or primer opuAR treA Frag2 for, to generate a fragment lacking the opuAR gene. PCR products, which had been cut with BamHI and SmaI, were cloned into the vector pJMB1 ([Hoffmann et al., 2013]). This vector carries a promoterless treA gene, whose gene product [phospho-α-(1,1)-glucosidase] can be assayed and photometrically quantitated with the chromogenic substrate α-PNPG ([Gotsche and Dahl, 1995]). The plasmids resulting for the construction of the treA transcriptional reporter gene fusions were named pSTH33 (opuAR^+/opuAAB.i-treA) and pSTH34 (opuAR^-/opuAAB.i-treA) (Supplementary Table S3). All treA reporter gene fusions were stably integrated as a single copy into the chromosome of various B. subtilis strains at the amyE gene; all of these strains carry a gene disruption mutation of the native chromosomal treA gene of B. subtilis to allow the assignment of the measured TreA enzyme activity to the reporter gene constructs (Supplementary Table S1).
Aliquots (1.5 ml) from cultures of B. subtilis strains carrying chromosomal opuAAB.i′-treA reporter operon gene fusions (Supplementary Table S1) were used to monitor the expression levels by assaying the TreA reporter enzyme activity as described previously using the chromogenic substrate α-PNPG ([Gotsche and Dahl, 1995]). The TreA-specific activity is expressed in units per milligram of protein. Protein concentrations were estimated from the optical density of the cell culture harboring the treA reporter operon gene fusion ([Miller, 1972]).
FIGURE 6 Influence of the B. subtilis GbsR-like regulators on the expression of opuA from B. infantis and its transcriptional response to the presence of compatible solutes. (A) Genetic structure of the opuAA-treA transcriptional reporter fusions. (B) The opuAA-treA reporter gene fusions, either including or lacking the B. infantis opuAR gene, were integrated into the chromosome of the B. subtilis strain STHB05; it carries gene disruption mutations of all three GbsR-like regulators, resulting in strains STHB10 (OpuAR^+) and STHB11 (OpuAR^-). […] The opuAA-treA reporter strains were grown in SMM to early exponential growth phase (OD578 1–1.5) and then assayed for TreA reporter enzyme activity. The shown data represent four independent biological replicates and each culture was assayed twice. (C) Strain STHB10 (opuAR^+/opuAA-treA) was grown in SMM with increasing NaCl concentrations until each of these cultures reached mid-exponential growth phase (OD578 of about 1.5) and were then harvested for TreA reporter enzyme activity assays. The given data are the means and standard deviations of four independent biological replicates and each culture was assayed twice. (D) Expression of the opuAA-treA reporter gene construct in response to extracellular provided compatible solutes. The opuAA-treA reporter fusion strains STHB10 (OpuAR^+) and STHB11 (OpuAR^-) were cultivated in SMM containing 1.2 M NaCl either in the absence or presence of 1 mM of the indicated compatible solutes. The opuAA-treA reporter fusion strains were grown to early exponential growth phase (OD578 1–1.5) and then assayed for TreA reporter enzyme activity. The given data are the means and standard deviations of four independent biological replicates and each culture was assayed twice.
To identify possible effector molecules for the B. infantis OpuAR protein, we conducted a series of in vivo experiments in which we assessed any possible inducing effects of compatible solutes on opuAA-treA transcriptional activity in an OpuAR-dependent fashion (Figure 6D).

[2] = molecular target: B. infantis OpuAR protein (OpuAR-Strep-tag II recombinant protein) (Bacillus infantis NRRL B-14911); assay: SEC; HiLoad 16/600 Superdex 200 pg; 2 ml of affinity-purified OpuAR (1.5 mg/ml) loaded straight after purification; 100 mM KPP (pH 8), 300 mM NaCl; column standardised with thyroglobulin, albumin, ovalbumin and cytochrome C

Compound	Induction of opuAA-treA reporter activity (OpuAR-dependent) [1]	stoichiometry N [2]
C[N+](C)(C)CCOS(=O)(=O)[O-] [choline-O-sulfate]	did not serve as inducers	
CC1=NCC[C@@H](C(=O)O)N1 [ectoine]	did not serve as inducers	
B. infantis OpuAR protein (OpuAR-Strep-tag II recombinant protein) (natural protein)		2
